According to ChEMBL document CHEMBL3046911, “Serotonin transporter activity of imidazolidine-2,4-dione and imidazo[2,1-f]purine-2,4-dione derivatives in aspect of their acid-base properties” (Med Chem Res, 2012):

Assay: physchem
In the case of `COc1ccccc1N1CCN(CCCn2c(-c3ccccc3)cn3c4c(=O)n(C)c(=O)n(C)c4nc23)CC1`, the pKa is reported as 8.44. In the case of `Cc1cn2c3c(=O)n(C)c(=O)n(C)c3nc2n1CCCN1CCN(c2cccc(Cl)c2Cl)CC1`, the pKa is reported as 7.61. Compound `Cc1cn2c3c(=O)n(C)c(=O)n(C)c3nc2n1CCCN1CCc2ccccc2C1` has a pKa of 8.66. Compound `O=C1NC2(CCCc3ccccc32)C(=O)N1CCCN1CCN(c2cccc(C(F)(F)F)c2)CC1` (configuration not stated) has a pKa of 11.1. Compound `O=C1NC2(CCCc3ccccc32)C(=O)N1CCCN1CCN(c2ccccc2)CC1` (configuration not stated) has a pKa of 10.6. Work on `O=C1NC2(CCc3ccccc32)C(=O)N1CCCN1CCN(c2ccccc2)CC1` (configuration not stated) yielded a pKa of 10.5. `O=C1NC2(CCCc3ccccc32)C(=O)N1CCCN1CCc2ccccc2C1` (configuration not stated) showed a pKa of 10.9. `COc1ccccc1N1CCN(CCCn2ccn3c4c(=O)n(C)c(=O)n(C)c4nc23)CC1` showed a pKa of 8.19. `O=C1NC2(CCc3ccccc32)C(=O)N1CCCN1CCN(c2cccc(C(F)(F)F)c2)CC1` (configuration not stated) showed a pKa of 9.96. `Cn1c(=O)c2c(nc3n(CCCN4CCc5ccccc5C4)c(-c4ccccc4)cn23)n(C)c1=O` showed a pKa of 10.4. With `Cc1cn2c3c(=O)n(C)c(=O)n(C)c3nc2n1CCCN1CCN(c2ccccc2)CC1` the pKa was 7.55. With `COc1ccccc1N1CCN(CCCN2C(=O)NC3(CCCc4ccccc43)C2=O)CC1` (configuration not stated) the pKa was 10.3. For `COc1ccccc1N1CCN(CCCN2C(=O)NC3(CCc4ccccc43)C2=O)CC1` (configuration not stated), the pKa was 9.6. For `COc1ccccc1N1CCN(CCCn2c(C)cn3c4c(=O)n(C)c(=O)n(C)c4nc23)CC1`, the pKa was 7.61. Work on `O=C1NC2(CCc3ccccc32)C(=O)N1CCCN1CCN(c2cccc(Cl)c2)CC1` (configuration not stated) yielded a pKa of 10.3. For `O=C1NC2(CCc3ccccc32)C(=O)N1CCCN1CCc2ccccc2C1` (configuration not stated), the pKa was 10.9. For `Cn1c(=O)c2c(nc3n(CCCN4CCN(c5ccccc5)CC4)ccn23)n(C)c1=O`, the pKa was 8.09. For `O=C1NC2(CCCc3ccccc32)C(=O)N1CCCN1CCN(c2cccc(Cl)c2)CC1` (configuration not stated), the pKa was 10.8. `Cn1c(=O)c2c(nc3n(CCCN4CCN(c5cccc(Cl)c5)CC4)c(-c4ccccc4)cn23)n(C)c1=O` showed a pKa of 10.6. Compound `Cn1c(=O)c2c(nc3n(CCCN4CCN(c5ccccc5)CC4)c(-c4ccccc4)cn23)n(C)c1=O` has a pKa of 8.79. Compound `Cn1c(=O)c2c(nc3n(CCCN4CCN(c5cccc(Cl)c5)CC4)ccn23)n(C)c1=O` has a pKa of 8.35. `Cc1cn2c3c(=O)n(C)c(=O)n(C)c3nc2n1CCCN1CCN(c2cccc(Cl)c2)CC1` gave a pKa of 8.12.
